Results published in publication PMC4279419, “Angiostatic, tumor inflammatory and anti-tumor effects of CXCL4^47–70 and CXCL4L1^47–70 in an EGF-dependent breast cancer model” (Oncotarget, 2014).
Where no end group is shown, it is not given here.

Assays:
macrophage markers = assay: qPCR tumor macrophage marker expression; assay type: in vivo, murine; conditions: 2.5 μg intratumoral 3×/week; 2^−ΔΔCT
Experimental: (§1) The RNeasy Mini Kit (QIAGEN, Venlo, the Netherlands) was used for tumor mRNA extraction. The extracted mRNA was then converted to cDNA making use of the High Capacity cDNA Reverse Transcription Kit (Applied Biosystems, Foster City, CA). Quantitative polymerase chain reactions (qPCR) based on the TaqMan principle were conducted to compare gene expression between samples. Primers and probes (Table 2; Integrated DNA Technologies, Haasrode, Belgium), were diluted to the prescribed working concentrations in RNase-free water and added to the reaction mix in a MicroAmp® fast optical 96-well reaction plate (Applied Biosystems), together with 50 ng sample cDNA per reaction. The actual thermocycler program consisted of 2 minutes on 50 °C, 10 minutes on 95 °C and 40 cycles of 15 seconds on 95 °C followed by 1 minute on 60 °C. Analysis of the obtained CT was based on the 2^−ΔΔC^T method, opting for 18S ribosomal 1 RNA as an internal control.

B16 melanoma = conditions: previous study by our group; cited from earlier work
From the text: The chemokines CXCL4 and CXCL4L1 have both been attributed anti-tumoral activity as a result of angiostatic action, blockade of lymphatic vessel formation and the attraction of anti-tumoral lymphocytes. CXCL4L1 is considered to be a more powerful angiostatic and anti-tumoral agent than its homologue CXCL4, despite their striking 96% sequence identity. This functional difference has been linked to a single amino acid replacement, causing CXCL4L1 to adapt a unique carboxy-terminal 3D-structure with decreased affinity for GAGs. However, the causal link ...

F4/80 = assay: qPCR tumor F4/80 mRNA; assay type: in vivo, murine; conditions: 2.5 μg intratumoral 3×/week; 2^−ΔΔCT; p=0.008, n=10
Experimental: as §1

TGM2 = assay: qPCR tumor TGM2 mRNA (M2 marker); assay type: in vivo, murine; conditions: 2.5 μg intratumoral 3×/week; 2^−ΔΔCT
Experimental: as §1

CD204 = assay: qPCR tumor CD204 mRNA (M2 marker); assay type: in vivo, murine; conditions: 2.5 μg intratumoral 3×/week; 2^−ΔΔCT
Experimental: as §1

IL-12 = assay: qPCR tumor IL-12 mRNA (M1 marker); assay type: in vivo, murine; conditions: 2.5 μg intratumoral 3×/week; 2^−ΔΔCT; not reaching statistical significance
Experimental: as §1

NOS2 = assay: qPCR tumor NOS2 mRNA (M1 marker); assay type: in vivo, murine; conditions: 2.5 μg intratumoral 3×/week; 2^−ΔΔCT; not reaching statistical significance
Experimental: as §1

CD11c = assay: qPCR tumor CD11c mRNA (dendritic cell marker); assay type: in vivo, murine; conditions: 2.5 μg intratumoral 3×/week; 2^−ΔΔCT; p=0.032, n=10
Experimental: as §1

IFN-γ = assay: qPCR tumor IFN-γ mRNA; assay type: in vivo, murine; conditions: 2.5 μg intratumoral 3×/week; 2^−ΔΔCT
Experimental: as §1

monocytic THP-1 = conditions: as a single stimulus; cited from earlier work
From the text: Perception of the role of the immune system in tumor development has changed over time. Tumor inflammation is indeed the seventh hallmark of malignant disease, but the sizeable myeloid population present has been mostly observed to take on a tumor-promoting role rather than exert its protective, phagocytic and cytotoxic function. This shift could be attributed to the phagocytes' versatility and their ability to adopt distinct phenotypes influenced by locally produced factors. Rather than depleting the tumoral myeloid cell population, it could be beneficial to tackle its pola ...

| Substance | macrophage marker expression versus vehicle (macrophage markers) | effect in treatment of B16 melanoma (B16 melanoma) | F4/80 mRNA level versus control (F4/80) | TGM2 mRNA versus control (TGM2) | CD204 mRNA versus control (CD204) | IL-12 mRNA versus control (IL-12) | NOS2 mRNA versus control (NOS2) | CD11c mRNA versus vehicle (CD11c) | IFN-γ mRNA versus vehicle (IFN-γ) | THP-1 migration, single stimulus (monocytic THP-1) |
| --- | --- | --- | --- | --- | --- | --- | --- | --- | --- | --- |
| CXCL4L1^47–70: synthetic human carboxy-terminal peptide restricted to the last 24 amino acids of CXCL4L1, Fmoc chemistry | No significant changes in macrophage marker expression | beneficial effects of CXCL4L1^47–70 | – | – | – | – | – | – | – | – |
| CXCL4^47–70: synthetic human carboxy-terminal peptide restricted to the last 24 amino acids of CXCL4, Fmoc chemistry (NGRKICLDLQAPLYKKIIKKLLES; not fully specified (N-terminus)) | – | – | significantly higher | only a modest increase | only a modest increase | only modestly increased | only modestly increased | more prominent | significantly elevated expression | not to stimulate monocytic THP-1 migration |
